Data from US20180099931A1 (AbbVie S.à.r.l., priority 2016, published 2018).
Like-named read-outs stand apart in the source and are kept apart here.

Target: T1, F508delCFTR (Homo sapiens, UniProt P13569, DEL508-508)
T1 construct: expressed in transfected cells; host or cells: CFBE41o- human lung-derived epithelial cells (CFBE4lo-F508delCFTR-HRP), doxycycline-inducible
Experiment: Cell Surface Expression-Horse Radish Peroxidase (CSE-HRP) Assay;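 on Maximum % activity (with co-corrector): co-corrector and positive control are both the same reference corrector at 2 µM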;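 on Maximum % activity (without co-corrector): percent of the 2 µM on-plate positive control corrector response above DMSO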
Type: cell-based
Conditions: for Emax: read-out: Maximum % activity (without co-corrector)

[1] = test compound without co-corrector, maximum at any tested concentration, normalized to on-plate positive control
[2] = test compound without co-corrector, read-out: EC50 (without co-corrector)
[3] = with co-corrector (2 μM of 3-[(2R,4R)-4-({[1-(2,2-difluoro-1,3-benzodioxol-5-yl)cyclopropyl]carbonyl}amino)-7-methoxy-3,4-dihydro-2H-chromen-2-yl]benzoic acid), maximum at any tested concentration, normalized to on-plate positive control
[4] = with co-corrector (2 μM of 3-[(2R,4R)-4-({[1-(2,2-difluoro-1,3-benzodioxol-5-yl)cyclopropyl]carbonyl}amino)-7-methoxy-3,4-dihydro-2H-chromen-2-yl]benzoic acid), read-out: EC50 (with co-corrector)

T1 sequence (P13569 with tags, fused parts or gaps DEL508-508): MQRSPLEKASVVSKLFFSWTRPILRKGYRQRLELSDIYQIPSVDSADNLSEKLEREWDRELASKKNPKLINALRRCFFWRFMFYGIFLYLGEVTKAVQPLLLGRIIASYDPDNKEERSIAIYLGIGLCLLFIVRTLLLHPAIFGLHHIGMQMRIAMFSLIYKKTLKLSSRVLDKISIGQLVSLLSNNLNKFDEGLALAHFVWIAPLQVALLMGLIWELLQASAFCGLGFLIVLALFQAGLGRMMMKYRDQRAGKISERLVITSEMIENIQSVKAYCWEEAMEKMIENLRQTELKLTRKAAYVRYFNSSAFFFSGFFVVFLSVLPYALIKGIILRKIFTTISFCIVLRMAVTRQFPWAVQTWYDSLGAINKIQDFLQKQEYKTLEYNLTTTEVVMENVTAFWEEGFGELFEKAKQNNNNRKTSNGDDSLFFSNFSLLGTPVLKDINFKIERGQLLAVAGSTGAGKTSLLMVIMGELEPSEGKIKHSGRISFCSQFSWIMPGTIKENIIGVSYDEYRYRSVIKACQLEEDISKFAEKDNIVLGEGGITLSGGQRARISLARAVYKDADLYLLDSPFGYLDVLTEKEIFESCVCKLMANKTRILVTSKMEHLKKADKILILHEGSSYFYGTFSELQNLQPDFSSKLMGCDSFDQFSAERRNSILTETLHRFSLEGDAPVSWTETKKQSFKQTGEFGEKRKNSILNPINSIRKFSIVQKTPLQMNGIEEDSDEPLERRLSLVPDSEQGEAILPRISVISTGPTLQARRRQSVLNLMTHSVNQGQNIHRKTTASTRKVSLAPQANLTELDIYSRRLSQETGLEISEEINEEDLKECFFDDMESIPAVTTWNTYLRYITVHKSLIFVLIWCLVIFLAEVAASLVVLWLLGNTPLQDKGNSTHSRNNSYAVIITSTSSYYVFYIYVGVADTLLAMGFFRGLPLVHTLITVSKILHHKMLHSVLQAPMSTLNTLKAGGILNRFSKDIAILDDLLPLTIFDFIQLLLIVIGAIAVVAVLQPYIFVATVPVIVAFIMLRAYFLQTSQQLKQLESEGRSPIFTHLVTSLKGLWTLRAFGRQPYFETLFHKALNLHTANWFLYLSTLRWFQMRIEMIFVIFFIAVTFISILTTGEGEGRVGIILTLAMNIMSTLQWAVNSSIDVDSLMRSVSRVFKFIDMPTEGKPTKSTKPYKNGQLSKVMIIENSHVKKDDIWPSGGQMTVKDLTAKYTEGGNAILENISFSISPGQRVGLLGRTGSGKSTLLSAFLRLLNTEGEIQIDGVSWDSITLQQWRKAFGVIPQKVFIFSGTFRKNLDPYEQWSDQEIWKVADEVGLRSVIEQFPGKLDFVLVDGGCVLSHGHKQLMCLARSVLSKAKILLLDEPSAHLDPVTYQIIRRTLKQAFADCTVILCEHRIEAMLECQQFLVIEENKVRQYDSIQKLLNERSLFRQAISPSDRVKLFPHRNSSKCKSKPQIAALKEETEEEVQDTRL

SMILES | Emax [1] | EC50 [2] | Maximum % activity (with co-corrector) [3] | EC50 [4] | Maximum % activity (without co-corrector) [1]
COc1ncc(C(F)(F)F)cc1CN[C@H]1[C@H](C(C)(C)C)[C@@H](C(=O)O)N(C(=O)[C@H]2CCCCO2)[C@H]1c1cccnc1N(C)C [II-478] | < 100% | 1000 to 10000 nM | ++ (≥150 and <350) | 1000 to 10000 nM | –
COc1ccc(C23CC(C2)C3)cc1CN[C@H]1[C@H](C(C)(C)C)[C@@H](C(=O)O)N(C(=O)[C@@H]2CCC[C@@H](OC)C2)[C@H]1c1ccccc1 [II-479] | > 200% | 1000 to 10000 nM | +++ (≥350) | 1000 to 10000 nM | –
COc1ccc(C(C)(C)C)cc1CN[C@H]1[C@H](C(C)(C)C)[C@@H](C(=O)O)N(C(=O)C2CCc3cc(F)ccc3O2)[C@H]1c1cccnc1N(C)C (some centres unmarked) [II-482] | – | 1000 to 10000 nM | +++ (≥350) | 1000 to 10000 nM | ++ (≥100 and <200)
COc1ncc(C(F)(F)F)cc1N[C@H]1[C@H](C(C)(C)C)[C@@H](C(=O)O)N(C(=O)C2C3CCCC32)[C@H]1c1cccnc1N(C)C (some centres unmarked) [II-483] | < 100% | 1000 to 10000 nM | ++ (≥150 and <350) | 1000 to 10000 nM | –
COc1ccc(C23CC(C2)C3)cc1CN[C@H]1[C@H](C(C)(C)C)[C@@H](C(=O)O)N(C(=O)C2CCCCC2)[C@H]1c1ccccc1OC [II-484] | 100 to 200% | < 1000 nM | +++ (≥350) | < 1000 nM | –
COc1ncc(C(F)(F)F)cc1N[C@H]1[C@H](C(C)(C)C)[C@@H](C(=O)O)N(C(=O)[C@@H]2CCCC[C@H]2C(F)(F)F)[C@H]1c1cccnc1N(C)C [II-485] | < 100% | 1000 to 10000 nM | ++ (≥150 and <350) | 1000 to 10000 nM | –
COc1ccc(C23CC(C2)C3)cc1CN[C@H]1[C@H](C(C)(C)C)[C@@H](C(=O)O)N(C(=O)C2CCCCC2)[C@H]1c1cccnc1OC [II-486] | > 200% | 1000 to 10000 nM | +++ (≥350) | < 1000 nM | –
COc1cc(C(F)(F)F)ccc1CN[C@H]1[C@H](C(C)(C)C)[C@@H](C(=O)O)N(C(=O)OC(C)C)[C@H]1c1ccccc1 [II-487] | > 200% | 1000 to 10000 nM | +++ (≥350) | 1000 to 10000 nM | –
COc1ncc(C(F)(F)F)cc1N[C@H]1[C@H](C(C)(C)C)[C@@H](C(=O)O)N(C(=O)C2CCCC(F)(F)C2)[C@H]1c1cccnc1N(C)C (some centres unmarked) [II-488] | < 100% | 1000 to 10000 nM | ++ (≥150 and <350) | 1000 to 10000 nM | –
COc1ncc(C2CCC2)cc1CN[C@H]1[C@H](C(C)(C)C)[C@@H](C(=O)O)N(C(=O)C2CCCCO2)[C@H]1c1cccnc1N(C)C (some centres unmarked) [II-491] | > 200% | 1000 to 10000 nM | +++ (≥350) | 1000 to 10000 nM | –
COc1ncc(C2CCC2)cc1CN[C@H]1[C@H](C(C)(C)C)[C@@H](C(=O)O)N(C(=O)C2CCCC(F)(F)C2)[C@H]1c1ccccc1 (some centres unmarked) [II-492] | > 200% | 1000 to 10000 nM | +++ (≥350) | < 1000 nM | –
COc1ccc(C2(C)CCC2)cc1CN[C@H]1[C@H](C(C)(C)C)[C@@H](C(=O)O)N(C(=O)[C@H]2CCCCO2)[C@H]1c1cccnc1N(C)C [II-493] | > 200% | 1000 to 10000 nM | +++ (≥350) | 1000 to 10000 nM | –
COc1cc(C(F)(F)F)ccc1CN[C@H]1[C@H](C(C)(C)C)[C@@H](C(=O)O)N(C(=O)[C@H]2CCCCO2)[C@H]1c1cccnc1N(C)C [II-494] | < 100% | 1000 to 10000 nM | ++ (≥150 and <350) | 1000 to 10000 nM | –
COc1cc(C(F)(F)F)ccc1CN[C@H]1[C@H](C(C)(C)C)[C@@H](C(=O)O)N(C(=O)[C@@H]2CCCCO2)[C@H]1c1cccnc1N(C)C [II-495] | > 200% | 1000 to 10000 nM | +++ (≥350) | 1000 to 10000 nM | –
